“Also recorded” adds a separate entry of the source.
How the values were obtained:
MALT1 = assay: Western blot of MALT1 expression in E0771 cells after ASO transfection with Lipofectamine 3000; format: cell-based, mouse; conditions: ASO final concentration 50 nM, 5 μL Lipofectamine 3000, 48 hours after transfection
Excerpt: S1. Considering the specificity between the antisense nucleic acid and the target nucleic acid and the hairpin-like structure that may be formed by the base complementarity within the nucleotide sequence of the antisense nucleic acid, the nucleotide sequence of the antisense nucleic acid needs to target the amino acid residues at positions 81 and/or 82 of the death domain (DD) of MALT1; S2. Considering the stability of hybridization and the membrane permeability of the antisense oligonucleotide, select the length of the antisense oligonucleotide, which ranges from 15 to 40 bases; S3. Considering the affinity of the antisense oligonucleotide for the target sequence, since the affinity of GC base pairs is greater than that between AU, increasing the ratio of GC base pairs to AU base pairs in the antisense oligonucleotide can appropriately reduce the length of the antisense oligonucleotide; S4. Set a control, which can be missense or reverse; S5. Use the designed antisense oligonucleotides to inhibit the expression of the same target sequence MALT-1 mRNA, and screen the antisense oligonucleotide with the best inhibitory effect. The specific steps for screening the antisense oligonucleotide with the best inhibitory effect are as follows: • a. […] 2×10^5 E0771 cells into each well of a 12-well plate and incubate overnight; • b. On the day after operation a, transfect the corresponding ASO drug with 5 μL of Lipofectamine™ 3000 until its final concentration is 50 nM; • c. 6 hours after operation b, replace the serum-free medium with medium containing 10% serum; • d. 24 hours after operation c, replace the serum-free medium again; • e. 48 hours after operation d, harvest the obtained protein and perform Western blot experiment. The Western blot results of antisense oligonucleotides targeting E0771 cells after transfection with Lipofectamine™ 3000 are shown in FIG. 5: in this figure, 48 hours after transfection with Lipofectamine™ 3000, 5 μL of Lipofectamine™ 3000 was added to each well of the 12-well plate.

[1] = system: breast cancer cells (E0771); assay: Verification of ASO prodrug in breast cancer cells E0771 (FIG. 18); format: cell-based, mouse
PyMT-A cells = assay: PyMT-A orthotopic breast cancer model, intratumoral ASO, tumor volume; format: in vivo, mouse; conditions: mean, n=10
Excerpt: (§1) Based on the intratumoral experimental data of various mouse breast cancer models and melanoma models (administration started 7 days later, once every 3 days), this example studies the effect comparison between the ASO prodrug (ASO24, whose sequence is shown in SEQ ID No. 2) and PD-1/PD-L1, as well as the effect of their combination.
(§2) 1×10^5 E0771 cells were orthotopically injected into the fat pad of wild-type mice. Starting from day 7, PD-1 antibody (BioXCell #BE0033, clone J43, the same below) monotherapy, ASO monotherapy, or combined PD-1 antibody and ASO therapy was initiated. For anti-PD-1 antibody monotherapy, intraperitoneal injection was performed once a week at a dose of 3 mg/kg starting 7 days after tumor transplantation, and the control group was injected with DPBS. For MALT1 ASO monotherapy, in vivo-jetPEI®, in vivo DNA transfection kit was used according to the instructions. Intratumoral injection was performed twice a week at a dose of 5 nmol starting 7 days after tumor transplantation, and the control group was injected with solvent or nontarget ASO. Combined therapy will receive the two specified monotherapies. Tumor measurement was started after administration, once every three days. n=12. Data are expressed as mean. Statistical analysis was performed using Two way ANOVA. ** represents p <0.01.
(§3) 1×10^5 PyMT-A cells were orthotopically injected into the fat pad of wild-type mice. Starting from day 7, PD-1 antibody monotherapy, ASO monotherapy, or combined PD-1 antibody and ASO therapy was initiated. n=10. Data are expressed as mean. Statistical analysis was performed using Two way ANOVA. n.s. represents no significant difference. ** represents p <0.01.

B16F10 cells = assay: B16F10 subcutaneous melanoma model, intratumoral ASO, tumor volume; format: in vivo, mouse; conditions: mean, n=10
Excerpt: as §1, §2
1×10^5 B16F10 cells were subcutaneously injected near the subcutaneous tissue of the groin of wild-type mice. Starting from day 7, PD-1 antibody monotherapy, ASO monotherapy, or combined PD-1 antibody and ASO therapy was initiated. n=10. Data are expressed as mean. Statistical analysis was performed using Two way ANOVA. ** represents p<0.01.

E0771 cells [2] = assay: E0771 breast cancer model, systemic ASO24 (tail vein LNP-ASO), tumor volume; format: in vivo, mouse
Experimental: as §2
(§4) Study on the Effect Comparison between ASO Prodrug and PD-1/PD-L1 and Their Combined Use Based on Systemic Administration Experimental Data of Various Mouse Breast Cancer Models and Melanoma Models (Administration Started 7 Days Later, Once Every 3 Days).
(§5) The experimental process is similar to the intratumoral administration of ASO24 in E0771 cells, with the difference that ASO24 is administered via systemic delivery by tail vein injection of LNP-ASO in mice.

4T1 cells [3] = assay: 4T1 breast cancer model, systemic ASO24 (tail vein LNP-ASO), tumor volume; format: in vivo, mouse
Experimental: as §4, §5

E0771 cells [4] = assay: E0771 orthotopic breast cancer model, intratumoral ASO, tumor volume; format: in vivo, mouse; conditions: ASO 5 nmol intratumoral twice a week, mean, n=12
Excerpt: as §1, §2

4T1 cells [5] = assay: 4T1 orthotopic breast cancer model, intratumoral ASO, tumor volume; format: in vivo, mouse; conditions: mean, n=10
Excerpt: as §1, §2
as §3, with “2×10^5 4T1” for “1×10^5 PyMT-A”

[6] = system: germinal center B-cell (GCB) type DLBCL cells; conditions: background statement; cells independent of BCR signaling; cited from earlier work
ABC DLBCL cells = conditions: background statement; cited from earlier work
[7] = Day 7 (start of administration), ASO24 systemic by tail vein LNP-ASO
[8] = Day 9, ASO24 systemic by tail vein LNP-ASO, administration from day 7
[9] = Day 11, ASO24 systemic by tail vein LNP-ASO, administration from day 7
[10] = Day 13, ASO24 systemic by tail vein LNP-ASO, administration from day 7
[11] = Day 15, ASO24 systemic by tail vein LNP-ASO, administration from day 7
[12] = Day 17, ASO24 systemic by tail vein LNP-ASO, administration from day 7
[13] = Day 19, ASO24 systemic by tail vein LNP-ASO, administration from day 7

AAGTTCATGAGCCTTGGCCC (antisense AAGUUCAUGAGCCUUGGCCC; listed as RNA, chemistry not given here) [ASO C]
inhibition of MALT1 expression (Western blot band) (MALT1): good inhibitory results; also recorded: good inhibitory effects

AGCCTTGGCCCACTGTAGATT (antisense AGCCUUGGCCCACUGUAGAUU; listed as RNA, chemistry not given here) [ASO A]
inhibition of MALT1 expression (Western blot band) (MALT1): good inhibitory results; also recorded: good inhibitory effects

CAAGAGCAGATTTATTTTGT (antisense CAAGAGCAGAUUUAUUUUGU; listed as RNA, chemistry not given here) [ASO K]
inhibition of MALT1 expression (Western blot band) (MALT1): good inhibitory results; also recorded: good inhibitory effects

GAAGTTCATGAGCCTTGGCCC (antisense GAAGUUCAUGAGCCUUGGCCC; called an ASO prodrug, chemistry not given here) [ASO24]
inhibition of further development of cancer cells [1]: significantly inhibit the further development of cancer cells | Tumor volume (PyMT-A cells; Day 0, PyMT-A orthotopic fat pad, wild-type mice, treatment from day 7, ASO intratumoral): 0 mm^3 | Tumor volume (PyMT-A cells; Day 7 (start of treatment), PyMT-A orthotopic, ASO intratumoral): 13 mm^3 | Tumor volume (PyMT-A cells; Day 10, PyMT-A orthotopic, treatment from day 7, ASO intratumoral): 41 mm^3 | Tumor volume (PyMT-A cells; Day 13, PyMT-A orthotopic, treatment from day 7, ASO intratumoral): 142 mm^3 | Tumor volume (PyMT-A cells; Day 16, PyMT-A orthotopic, treatment from day 7, ASO intratumoral): 245 mm^3 | Tumor volume (PyMT-A cells; Day 19, PyMT-A orthotopic, treatment from day 7, ASO intratumoral): 578 mm^3 | Tumor volume (B16F10 cells; Day 0, B16F10 subcutaneous near groin, wild-type mice, treatment from day 7, ASO intratumoral): 0 mm^3 | Tumor volume (B16F10 cells; Day 7 (start of treatment), B16F10 subcutaneous, ASO intratumoral): 49 mm^3 | Tumor volume (B16F10 cells; Day 10, B16F10 subcutaneous, treatment from day 7, ASO intratumoral): 26 mm^3 | Tumor volume (B16F10 cells; Day 13, B16F10 subcutaneous, treatment from day 7, ASO intratumoral): 129 mm^3 | Tumor volume (B16F10 cells; Day 16, B16F10 subcutaneous, treatment from day 7, ASO intratumoral): 311 mm^3 | Tumor volume (E0771 cells [2]; Day 0, ASO24 systemic by tail vein injection of LNP-ASO, administration from day 7): 0 mm^3 | Tumor volume (E0771 cells [2]; [7]): 29 mm^3 | Tumor volume (E0771 cells [2]; [8]): 51 mm^3 | Tumor volume (E0771 cells [2]; [9]): 57 mm^3 | Tumor volume (E0771 cells [2]; [10]): 86 mm^3 | Tumor volume (E0771 cells [2]; [11]): 195 mm^3 | Tumor volume (E0771 cells [2]; [12]): 225 mm^3 | Tumor volume (E0771 cells [2]; [13]): 313 mm^3 | Tumor volume (4T1 cells [3]; Day 0, ASO24 systemic by tail vein LNP-ASO, administration from day 7): 0 mm^3 | Tumor volume (4T1 cells [3]; [7]): 44 mm^3 | Tumor volume (4T1 cells [3]; [8]): 94 mm^3 | Tumor volume (4T1 cells [3]; [9]): 103 mm^3 | Tumor volume (4T1 cells [3]; [10]): 136 mm^3 | Tumor volume (4T1 cells [3]; [11]): 244 mm^3 | Tumor volume (4T1 cells [3]; [12]): 333 mm^3 | Tumor volume (4T1 cells [3]; [13]): 510 mm^3 | inhibition of MALT1 expression (Western blot band) (MALT1; listed as D): obvious inhibitory results; also recorded: obvious inhibitory effects | Tumor volume (E0771 cells [4]; Day 0, E0771 orthotopic fat pad, wild-type mice, from day 7 anti-PD-1 3 mg/kg i.p. once a week): 0 mm^3 | Tumor volume (E0771 cells [4]; Day 7 (start of treatment), E0771 orthotopic, anti-PD-1 3 mg/kg i.p. once a week): 49 mm^3 | Tumor volume (E0771 cells [4]; Day 10, E0771 orthotopic, from day 7 anti-PD-1 3 mg/kg i.p. once a week): 36 mm^3 | Tumor volume (E0771 cells [4]; Day 13, E0771 orthotopic, from day 7 anti-PD-1 3 mg/kg i.p. once a week): 92 mm^3 | Tumor volume (E0771 cells [4]; Day 16, E0771 orthotopic, from day 7 anti-PD-1 3 mg/kg i.p. once a week): 140 mm^3 | Tumor volume (E0771 cells [4]; Day 19, E0771 orthotopic, from day 7 anti-PD-1 3 mg/kg i.p. once a week): 306 mm^3 | Tumor volume (4T1 cells [5]; Day 0, 4T1 orthotopic fat pad, wild-type mice, treatment from day 7, ASO intratumoral): 0 mm^3 | Tumor volume (4T1 cells [5]; Day 7 (start of treatment), 4T1 orthotopic, ASO intratumoral): 66 mm^3 | Tumor volume (4T1 cells [5]; Day 10, 4T1 orthotopic, treatment from day 7, ASO intratumoral): 71 mm^3 | Tumor volume (4T1 cells [5]; Day 13, 4T1 orthotopic, treatment from day 7, ASO intratumoral): 205 mm^3 | Tumor volume (4T1 cells [5]; Day 16, 4T1 orthotopic, treatment from day 7, ASO intratumoral): 377 mm^3 | Tumor volume (4T1 cells [5]; Day 19, 4T1 orthotopic, treatment from day 7, ASO intratumoral): 876 mm^3

GAGGCAGTGCTTGGGAAGGTC (antisense GAGGCAGUGCUUGGGAAGGUC; listed as RNA, chemistry not given here) [ASO I]
inhibition of MALT1 expression (Western blot band) (MALT1): good inhibitory results; also recorded: good inhibitory effects

GGTTTGTGGACTATACTTGT (antisense GGUUUGUGGACUAUACUUGU; listed as RNA, chemistry not given here) [ASO25]
inhibition of MALT1 expression (Western blot band) (MALT1): obvious inhibitory results; also recorded: obvious inhibitory effects

GTCCAGCCAACACTGCCTTG (antisense GUCCAGCCAACACUGCCUUG; listed as RNA, chemistry not given here) [ASO J]
inhibition of MALT1 expression (Western blot band) (MALT1): good inhibitory results; also recorded: good inhibitory effects

TAGAGGCAGTGCTTGGGAAG (antisense UAGAGGCAGUGCUUGGGAAG; listed as RNA, chemistry not given here) [ASO H]
inhibition of MALT1 expression (Western blot band) (MALT1): good inhibitory results; also recorded: good inhibitory effects

TCATGAGCCTTGGCCCACTG (antisense UCAUGAGCCUUGGCCCACUG; listed as RNA, chemistry not given here) [ASO B]
inhibition of MALT1 expression (Western blot band) (MALT1): obvious inhibitory results; also recorded: obvious inhibitory effects

TTGTGGACTATACTTGTGTA (antisense UUGUGGACUAUACUUGUGUA; listed as RNA, chemistry not given here) [ASO G]
inhibition of MALT1 expression (Western blot band) (MALT1): good inhibitory results; also recorded: good inhibitory effects

zVRPR-FMK
sensitivity of GCB type DLBCL cells to the inhibitor [6]: insensitive | toxicity in ABC DLBCL cells (ABC DLBCL cells): induces toxicity

Source: patent US20260258425A1, “MALT1 TUMOR INHIBITOR, PHARMACEUTICAL COMPOSITION CONTAINING THE SAME, AND APPLICATIONS THEREOF” (XZYP (BEIJING) BIOTECH CO., LTD, priority 2023, published 2026)
